Consider nine molecules from patent US8680071B2 (Idenix Pharmaceuticals, Inc., priority 2010, dated 2014).

SMILES strings stand for the structures. Where two headings read alike, the source gives them in different places.

For series [1], the system named is HCV Con1 subgenomic replicon. Description: HCV replicon assay (NS4A ELISA). Conditions: Hepatitis C virus. It is filed as cell-based. On the procedure: (§1) Huh-7 cells containing HCV Con1 subgenomic replicon (GS4.1 cells), (C. Seeger; Fox Chase University, Philadelphia, Pa., USA), are grown in Dulbecco's Modified Eagle Medium (DMEM) supplemented with 10% fetal bovine serum (FBS), 2 mM L-glutamine, 110 mg/L sodium pyruvate, 1× non-essential amino acids, 100 U/mL penicillin-streptomycin and 0.5 mg/mL G418 (Invitrogen). For dose-response testing, the cells are seeded in 96-well plates at 7.5×10^3 cells/well in a volume of 50 μL and incubated at 37° C./5% CO2. Three hours after plating, 50 μL of ten 2-fold serial dilutions of compounds (highest concentration, 75 μM) are added and cell cultures were incubated at 37° C./5% CO2 in the presence of 0.5% DMSO. Alternatively, compounds are tested at a single concentration of 15 μM. In all cases, Huh-7 cells lacking the HCV replicon served as negative control. The cells are incubated in the presence of compounds for 72 hours after which they were monitored for expression of the NS4A protein by enzyme-linked immunosorbent assay (ELISA). For this, the plates were then fixed for 1 min with 1:1 acetone:methanol, washed twice with phosphate-buffered saline (PBS), 0.1% Tween 20, blocked for 1 hour at room temperature with TNE buffer containing 10% FBS and then incubated for 2 h at 37° C. with the anti-NS4A mouse monoclonal antibody A-236 (ViroGen) diluted in the same buffer. After washing three times with PBS, 0.1% Tween 20, the cells are incubated 1 hour at 37° C. with anti-mouse immunoglobulin G-peroxidase conjugate in TNE, 10% FBS. After washing as described above, the reaction is developed with O-phenylenediamine (Zymed). The reaction is stopped after 30 minutes with […] and the absorbance is read at 492 nm using a Sunrise Tecan spectrophotometer. EC50 values are determined from the % inhibition versus concentration data using a sigmoidal non-linear regression analysis based on four parameters with Tecan Magellan software. When screening at a single concentration, the results are expressed as % inhibition at 15 μM. For cytotoxicity evaluation, GS4.1 cells are treated with compounds as described above and cellular viability was monitored using a Cell Titer 96 AQueous One Solution Cell Proliferation Assay (Promega). CC50 values are determined from the % cytotoxicity versus concentration data with Tecan Magellan software as described above.
Compounds presented in the table below were assayed according to the replicon assay described above.
(In antiviral work, replicon cells carry a viral genome segment that copies itself.)

Series [2] is described as follows: Cytotoxicity evaluation (Cell Titer 96 AQueous One Solution Cell Proliferation Assay). Type of series: cell-based. The note with it: human, GS4.1 cells, cellular viability, read-out: HCV Replicon CC50. Here is the method:
as §1

[3] abbreviates: Huh-7, 72 h, read-out: HCV Replicon EC50 (μM).
The mark [4] stands for this setting: ELISA 2 assay, Huh-7 cells containing HCV Con1 subgenomic replicon (GS4.1 cells), 72 hours, NS4A expression, read-out: HCV Replicon EC50.

As a reminder, the EC50 is the concentration giving half of the maximal effect. As usually defined, the CC50 is the concentration giving 50% cytotoxicity. `CCOC(=O)CNP(=O)(NCC(=O)OCC)OC[C@H]1O[C@@H](n2cnc3c(=O)[nH]c(N)nc32)C(C)(O)C1O` (stereo partly drawn) [Compound 54]: the EC50 in series [1] (setting [3]) lay in the range of 1 to 10 µM. For the same molecule, the CC50 at 72 h in series [2] is > 75 µM.

In the case of `COC(=O)C(CC(C)C)NP(=O)(NC(CC(C)C)C(=O)OC)OC[C@H]1O[C@@H](n2cnc3c(OC)nc(N)nc32)C(C)(O)C1O` (stereo partly drawn) [Compound 3], in series [1] (setting [4]), the 50% effective concentration (EC50) is < 1 µM. In addition, the CC50 at 72 h in series [2] is > 75 µM.

Regarding `COC(=O)C(CC(C)C)NP(=O)(NC(CC(C)C)C(=O)OC)OC[C@H]1O[C@@H](n2cnc3c(=O)[nH]c(N)nc32)C(C)(O)C1O` (stereo partly drawn) [Compound 9], the concentration giving a half-maximal response (EC50) in series [1] (setting [3]) was 1 to 10 µM. For the same molecule, the half-maximal cytotoxic concentration (CC50) at 72 h in series [2] was > 75 µM.

On to `C#CC1(F)C(O)[C@@H](COP(=O)(NCC(=O)OCC)NCC(=O)OCC)O[C@H]1n1cnc2c(=O)[nH]c(N)nc21` (stereo partly drawn) [Compound 48], for which the concentration giving a half-maximal response (EC50) in series [1] (setting [3]) was > 10 µM. Besides, the cytotoxic concentration (CC50) at 72 h in series [2] was > 75 µM.

Consider `C#C[C@@]1(F)[C@H](O)[C@@H](CO)O[C@H]1n1cnc2c(=O)[nH]c(N)nc21` [reference compound], for which the concentration giving a half-maximal response (EC50) in series [1] (setting [4]) is > 10 µM. The CC50 at 72 h in series [2] is > 75 µM.

As for `COC(=O)C(CC(C)C)NP(=O)(NC(CC(C)C)C(=O)OC)OC[C@H]1O[C@@H](n2cnc3c(NC4CC4)nc(N)nc32)C(C)(O)C1O` (stereo partly drawn) [Compound 8], in series [1] (setting [4]), the half-maximal effective concentration (EC50) was < 1 µM. In addition, the cytotoxic concentration (CC50) at 72 h in series [2] is > 75 µM.

On to `CCOC(=O)C(CC(C)C)NP(=O)(NC(CC(C)C)C(=O)OCC)OC[C@H]1O[C@@H](n2cnc3c(NC4CC4)nc(N)nc32)C(C)(O)C1O` (stereo partly drawn) [Compound 6], for which, in series [1] (setting [4]), the EC50 was < 1 µM. For the same molecule, in series [2], the half-maximal cytotoxic concentration (CC50) at 72 h is > 75 µM.

For the molecule `C[C@@]1(O)[C@H](O)[C@@H](CO)O[C@H]1n1cnc2c(=O)[nH]c(N)nc21` [2′-C-methylguanosine, reference compound], the EC50 in series [1] (setting [4]) lay in the range of 1 to 10 µM. Also, the cytotoxic concentration (CC50) at 72 h in series [2] was > 75 µM.

In the case of `COC(=O)C(CC(C)C)NP(=O)(NC(CC(C)C)C(=O)OC)OC[C@H]1O[C@@H](n2cnc3c(OC)nc(N)nc32)[C@@]2(C)OC(=O)OC12` (stereo partly drawn) [Compound 4], the EC50 in series [1] (setting [4]) was < 1 µM. Also, the 50% cytotoxic concentration (CC50) at 72 h in series [2] was > 75 µM.
